# Measurements: PubChem BioAssay (NCI)
# “And” between values parts separate entries of the source, which are not always exact repeats. Equal entries are not always repeated.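 Cells were grown in 96-well plates and exposed to each compound for 48 hours at five concentrations; endpoints were interpolated linearly between bracketing concentrations, or set to the highest concentration if not reached. GI50: concentration for 50% inhibition of growth. TGI: concentration producing complete growth inhibition.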
# Experiments:
# Assay in all cases: DTP human tumour cell line panel, 48 h
# [1] = tested on: SF-539 CNS
# [2] = tested on: NCI-H23 lung
# [3] = tested on: IGROV1 ovarian
# [4] = tested on: MALME-3M melanoma
# [5] = tested on: SF-295 CNS
# [6] = tested on: SN12C renal
# [7] = tested on: DLD-1 colon
# [8] = tested on: CCRF-CEM leukemia
# [9] = tested on: RPMI-8226 leukemia
# [10] = tested on: OVCAR-4 ovarian
# [11] = tested on: SW-620 colon
# [12] = tested on: CAKI-1 renal
# [13] = tested on: HL-60(TB) leukemia
# [14] = tested on: MOLT-4 leukemia
# [15] = tested on: 786-0 renal
# [16] = tested on: OVCAR-3 ovarian
# [17] = tested on: HCT-15 colon
# [18] = tested on: SNB-75 CNS
# [19] = tested on: RXF-631 renal
# [20] = tested on: NCI-H460 lung
# [21] = tested on: XF 498 CNS
# [22] = tested on: HOP-92 NSCLC
# [23] = tested on: TK-10 renal
# [24] = tested on: SR leukemia
# [25] = tested on: SK-MEL-5 melanoma
# [26] = tested on: NCI-H522 lung
# [27] = tested on: COLO 205 colon
# [28] = tested on: LXFL 529 NSCLC
# [29] = tested on: U251 CNS
# [30] = tested on: HOP-62 NSCLC
# [31] = tested on: HCC-2998 colon
# [32] = tested on: SK-OV-3 ovarian
# [33] = tested on: KM12 colon
# [34] = tested on: UO-31 renal
# [35] = tested on: SK-MEL-2 melanoma
# [36] = tested on: HT29 colon
# [37] = tested on: A549 NSCLC
# [38] = tested on: OVCAR-8 ovarian
# [39] = tested on: EKVX NSCLC
# [40] = tested on: DMS 273 small cell lung
# [41] = tested on: SK-MEL-28 melanoma
# [42] = tested on: DMS 114 small cell lung
# [43] = tested on: A498 renal
# [44] = tested on: UACC-62 melanoma
# [45] = tested on: UACC-257 melanoma
# [46] = tested on: K-562 leukemia
# [47] = tested on: M14 melanoma
# [48] = tested on: SF-268 CNS
# [49] = tested on: NCI-H226 lung
# [50] = tested on: RXF 393 renal
# [51] = tested on: LOX IMVI melanoma
# [52] = tested on: HOP-18 NSCLC
# [53] = tested on: KM20L2 colon
# [54] = tested on: SNB-19 CNS
# [55] = tested on: SNB-78 CNS
# [56] = tested on: HCT-116 colon
# [57] = tested on: ACHN renal
# [58] = tested on: OVCAR-5 ovarian
# [59] = tested on: MDA-MB-435
compound,measurement,setting,value
C=CCN=C1N=C(C)C(C(=O)OCC)S1 (stereo not drawn),TGI,[1],> 100 µM
same,TGI,[2],> 100 µM
same,TGI,[3],> 100 µM
same,TGI,[4],> 100 µM
same,TGI,[5],> 100 µM
same,TGI,[6],> 100 µM
same,TGI,[7],> 100 µM
same,TGI,[8],> 100 µM
same,TGI,[9],> 100 µM
same,TGI,[10],> 100 µM
same,TGI,[11],> 100 µM
same,TGI,[12],> 100 µM
same,TGI,[13],> 100 µM
same,TGI,[14],> 100 µM
same,TGI,[15],> 100 µM
same,TGI,[16],> 100 µM
same,TGI,[17],> 100 µM
same,TGI,[18],> 100 µM
same,TGI,[19],> 100 µM
same,TGI,[20],> 100 µM
same,TGI,[21],> 100 µM
same,TGI,[22],> 100 µM
same,TGI,[23],> 100 µM
same,TGI,[24],> 100 µM
same,TGI,[25],> 100 µM
same,TGI,[26],> 100 µM
same,TGI,[27],> 100 µM
same,TGI,[28],> 100 µM
same,TGI,[29],> 100 µM
same,TGI,[30],> 100 µM
same,TGI,[31],> 100 µM
same,TGI,[32],> 100 µM
same,TGI,[33],> 100 µM
same,TGI,[34],> 100 µM
same,TGI,[35],> 100 µM
same,TGI,[36],> 100 µM
same,TGI,[37],> 100 µM
same,TGI,[38],> 100 µM
same,TGI,[39],> 100 µM
same,TGI,[40],> 100 µM
same,TGI,[41],> 100 µM
same,TGI,[42],> 100 µM
same,TGI,[43],> 100 µM
same,TGI,[44],> 100 µM
same,TGI,[45],> 100 µM
same,TGI,[46],> 100 µM
same,TGI,[47],> 100 µM
same,TGI,[48],> 100 µM
same,TGI,[49],> 100 µM
same,TGI,[50],> 100 µM
same,TGI,[51],> 100 µM
same,TGI,[52],> 100 µM
same,TGI,[53],> 100 µM
same,TGI,[54],> 100 µM
same,TGI,[55],> 100 µM
same,TGI,[56],> 100 µM
same,TGI,[57],> 100 µM
same,TGI,[58],> 100 µM
O=C(O)c1ccccc1NS(=O)(=O)c1ccc([N+](=O)[O-])cc1,TGI,[1],> 100 µM
same,TGI,[2],> 100 µM
same,TGI,[3],> 100 µM
same,TGI,[4],> 100 µM
same,TGI,[5],> 100 µM
same,TGI,[6],> 100 µM
same,TGI,[8],> 100 µM
same,TGI,[9],> 100 µM
same,TGI,[10],> 100 µM
same,TGI,[11],> 100 µM
same,TGI,[12],> 100 µM
same,TGI,[14],> 100 µM
same,TGI,[15],> 100 µM
same,TGI,[16],> 100 µM
same,TGI,[17],> 100 µM
same,TGI,[18],> 100 µM
same,TGI,[19],> 100 µM
same,TGI,[20],> 100 µM
same,TGI,[21],> 100 µM
same,TGI,[23],> 100 µM
same,TGI,[25],> 100 µM
same,TGI,[26],> 100 µM
same,TGI,[27],> 100 µM
same,TGI,[28],> 100 µM
same,TGI,[29],> 100 µM
same,TGI,[30],> 100 µM
same,TGI,[31],> 100 µM
same,TGI,[32],> 100 µM
same,TGI,[33],> 100 µM
same,TGI,[34],> 100 µM
same,TGI,[35],> 100 µM
same,TGI,[36],> 100 µM
same,TGI,[37],> 100 µM
same,TGI,[38],> 100 µM
same,TGI,[39],> 100 µM
same,TGI,[40],> 100 µM
same,TGI,[41],> 100 µM
same,TGI,[44],> 100 µM
same,TGI,[45],> 100 µM
same,TGI,[46],> 100 µM
same,TGI,[47],> 100 µM
same,TGI,[48],> 100 µM
same,TGI,[49],> 100 µM
same,TGI,[50],> 100 µM
same,TGI,[51],> 100 µM
same,TGI,[52],> 100 µM
same,TGI,[53],> 100 µM
same,TGI,[54],> 100 µM
same,TGI,[55],> 100 µM
same,TGI,[56],> 100 µM
same,TGI,[57],> 100 µM
same,TGI,[58],> 100 µM
CCOC(=O)/C=C(\C)c1ccc(Cl)cc1,TGI,[1],> 100 µM
same,TGI,[2],> 100 µM
same,TGI,[3],> 100 µM
same,TGI,[4],> 100 µM
same,TGI,[5],> 100 µM
same,TGI,[6],> 100 µM
same,TGI,[7],> 100 µM
same,TGI,[8],> 100 µM
same,TGI,[9],> 100 µM
same,TGI,[10],> 100 µM
same,TGI,[11],> 100 µM
same,TGI,[12],> 100 µM
same,TGI,[13],> 100 µM
same,TGI,[14],> 100 µM
same,TGI,[17],> 100 µM
same,TGI,[18],> 100 µM
same,TGI,[19],> 100 µM
same,TGI,[20],> 100 µM
same,TGI,[21],> 100 µM
same,TGI,[22],> 100 µM
same,TGI,[23],> 100 µM
same,TGI,[24],> 100 µM
same,TGI,[27],> 100 µM
same,TGI,[28],> 100 µM
same,TGI,[29],> 100 µM
same,TGI,[31],> 100 µM
same,TGI,[33],> 100 µM
same,TGI,[34],> 100 µM
same,TGI,[35],> 100 µM
same,TGI,[36],> 100 µM
same,TGI,[37],> 100 µM
same,TGI,[38],> 100 µM
same,TGI,[39],> 100 µM
same,TGI,[40],> 100 µM
same,TGI,[41],> 100 µM
same,TGI,[42],> 100 µM
same,TGI,[43],> 100 µM
same,TGI,[45],> 100 µM
same,TGI,[46],> 100 µM
same,TGI,[47],> 100 µM
same,TGI,[48],> 100 µM
same,TGI,[49],98.4 µM
same,TGI,[50],> 100 µM
same,TGI,[51],> 100 µM
same,TGI,[52],> 100 µM
same,TGI,[53],> 100 µM
same,TGI,[54],> 100 µM
same,TGI,[55],> 100 µM
same,TGI,[56],> 100 µM
same,TGI,[57],> 100 µM
same,TGI,[58],> 100 µM
CC(C)S(=O)(=O)ON1C(=O)c2ccc(N(C)C)cc2C1=O,TGI,[1],37.4 µM
same,TGI,[2],> 59.2 µM
same,TGI,[3],43 µM
same,TGI,[59],4.75 µM
same,GI50,[4],20.5 µM
same,TGI,[4],8.68 µM and 53.5 µM
same,TGI,[5],> 67.1 µM
same,TGI,[6],34.3 µM
same,GI50,[8],0.29 µM
same,TGI,[8],1.06 µM and 9.21 µM
same,GI50,[9],1.71 µM
same,TGI,[9],6.46 µM and 9.12 µM
same,GI50,[10],6.01 µM
same,TGI,[10],33.7 µM
same,GI50,[11],4.01 µM
same,TGI,[11],38.6 µM
same,GI50,[12],13.6 µM
same,TGI,[12],28.7 µM
same,GI50,[13],0.417 µM
same,GI50,[14],0.4 µM
same,TGI,[14],4.57 µM and > 22.8 µM
same,GI50,[15],19.5 µM
same,TGI,[15],42 µM
same,TGI,[16],24.5 µM
same,TGI,[17],32.3 µM
same,GI50,[18],8.66 µM
same,TGI,[18],39.3 µM
same,TGI,[19],19.7 µM
same,TGI,[20],37.3 µM
same,TGI,[21],32.3 µM
same,GI50,[22],28 µM
same,TGI,[22],54.5 µM
same,TGI,[23],37.1 µM
same,GI50,[24],0.752 µM
same,TGI,[24],3.18 µM and 9.78 µM
same,GI50,[25],15.3 µM
same,TGI,[25],31.4 µM
same,GI50,[26],1.79 µM
same,TGI,[26],4.42 µM and 3.85 µM
same,GI50,[27],8.36 µM
same,TGI,[27],21.5 µM
same,TGI,[28],25.1 µM
same,TGI,[29],30.3 µM
same,TGI,[30],> 63.4 µM
same,TGI,[31],18 µM
same,TGI,[32],> 78.6 µM
same,TGI,[33],46.4 µM
same,TGI,[34],34.5 µM
same,GI50,[35],19.1 µM
same,TGI,[35],45 µM
same,TGI,[36],> 58 µM
same,TGI,[37],58 µM
same,GI50,[38],5.05 µM
same,TGI,[38],6.47 µM and 63.7 µM
same,TGI,[39],41.7 µM
same,TGI,[40],35.6 µM
same,TGI,[41],56.1 µM
same,TGI,[43],> 60.7 µM
same,TGI,[44],33.7 µM
same,TGI,[45],38.8 µM
same,GI50,[46],2.48 µM
same,TGI,[46],21.3 µM
same,TGI,[47],40 µM
same,TGI,[48],66.8 µM
same,TGI,[49],> 60.9 µM
same,GI50,[50],5.34 µM
same,TGI,[50],17.9 µM
same,GI50,[51],9.69 µM
same,TGI,[51],29.6 µM
same,TGI,[52],27.3 µM
same,TGI,[53],41.2 µM
same,TGI,[54],> 100 µM
same,TGI,[55],> 100 µM
same,GI50,[56],2.44 µM
same,TGI,[56],9.13 µM and 30.8 µM
same,TGI,[57],33.7 µM
same,TGI,[58],42 µM
